Experimental data from patent publication US4140764A, “β-Lactamase inhibitors and process for their preparation” (priority 1975, dated 1979).
Structures can show the parent of a compound that is named as a salt. Values belong to the compound of their own block, whether it stands above or below them.

Columns and labels:
[1] = system: Staphylococcus aureus (Russell); experiment: Antibacterial synergism, microtitre method (Example 42); assay type: cell-based
[2] = Hydrolysis of the methyl ester to clavulanic acid in pH 7 buffer; assay type: physicochemical
Source text: Many esters of clavulanic acid differ from analagous esters of penicillins or cephalosporins in that they show an enhanced tendency to hydrolyze to clavulanic acid under mild conditions. […] Esters which undergo some hydrolysis under mild conditions are included within the formula (IX): [drawing 8] wherein R^1 is a hydrocarbon group of 1- 9 carbon atoms optionally substituted by halogen, lower alkoxy, hydroxyl or optionally salted basic groups of the formula NR^2 R^3 wherein R^2 is a hydrogen atom or a lower alkyl group, R^3 is a hydrogen atom or a lower alkyl group or is attached to R^2 so that NR^2 R^3 is a 5- or 6- membered ring.
The reaction was followed by paper chromatography (bioautographic system). Using the butanol/ethanol/water system to follow the reaction over a period of 2 hours the zone of the methyl ester at Rf 0.79 decreased in size as the zone of clavulanic acid at Rf 0.12 increased.

Klebsiella aerogenes A = experiment: Antibacterial synergism, microtitre method (Example 42); assay type: cell-based; conditions: Table 8, strain A
Escherichia coli B 11 = experiment: as above; assay type: cell-based; conditions: B11, Table 5, inoculum 0.5 × 10^-2, read-out: Minimum Inhibitory Concentration, compound alone
[3] = system: Staphylococcus aureus (Russell); experiment: Synergism of clavulanic acid methyl ester, M.I.C. (Example 32); assay type: cell-based
Proteus mirabilis C889 = experiment: as above; assay type: cell-based
[4] = system: Klebsiella Aerogenes E 70; experiment: Antibacterial synergism, microtitre method (Example 42); assay type: cell-based; conditions: Table 8, strain E 70
Klebsiella Aerogenes 62 = experiment: as above; assay type: cell-based; conditions: Table 8, strain 62
Enterobacter cloacae = experiment: as above; assay type: cell-based; conditions: Table 5, inoculum 0.5 × 10^-2, read-out: Minimum Inhibitory Concentration, compound alone
Staphylococcus aureus = experiment: as above; assay type: cell-based; conditions: Table 6
[5] = biological target: T1, β-lactamase of E. coli JT410 (Escherichia coli, UniProt P00811); experiment: standard enzyme inhibitory assay (Example 49); assay type: biochemical; conditions: read-out: I50 (converted)
T1 construct: E. coli JT410; endogenous in cells; host or cells: Escherichia coli JT410
T1 sequence (P00811 20-377): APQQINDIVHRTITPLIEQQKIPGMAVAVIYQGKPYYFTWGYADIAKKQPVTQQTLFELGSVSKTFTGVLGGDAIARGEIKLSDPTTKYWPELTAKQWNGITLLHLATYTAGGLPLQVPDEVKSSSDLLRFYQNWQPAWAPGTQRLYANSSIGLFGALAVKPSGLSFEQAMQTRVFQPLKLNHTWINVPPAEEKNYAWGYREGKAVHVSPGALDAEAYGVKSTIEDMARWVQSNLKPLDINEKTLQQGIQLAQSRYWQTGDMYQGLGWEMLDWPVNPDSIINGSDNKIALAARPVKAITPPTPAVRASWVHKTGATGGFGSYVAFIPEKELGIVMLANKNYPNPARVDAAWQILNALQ

Structure (SMILES): O=C(Cc1cccs1)N[C@@H]1C(=O)N2C(C(=O)[O-])=C(C[n+]3ccccc3)CS[C@H]12 [cephaloridine]
Minimum Inhibitory Concentration of cephaloridine with synergist added at 1 μg/ml instead of 5 μg/ml [1]: Same value

conversion of the ester to clavulanic acid ([2]; 1 mg/ml, 37° C., 0.05M phosphate buffer pH 7, followed over 2 hours): Slow conversion
hydrolysis to clavulanic acid ([2]; water buffered to pH7): slowly hydrolyze
Structure (SMILES): COC(=O)[C@H]1/C(=C/CO)O[C@@H]2CC(=O)N21 [clavulanic acid methyl ester]

MIC of Ampicillin + 5 μg/ml of Benzyl Ester of clavulanic acid (Klebsiella aerogenes A): 1.9 µg/mL
MIC of Ampicillin + 5 μg/ml of Methyl Ester of clavulanic acid (Klebsiella aerogenes A): 1.9 µg/mL
MIC (Escherichia coli B 11): > 500 µg/mL
MIC of Ampicillin + 5 μg/ml of Benzyl Ester of clavulanic acid [4]: 3.9 µg/mL
MIC of Ampicillin + 5 μg/ml of Methyl Ester of clavulanic acid [4]: 3.9 µg/mL
MIC of Ampicillin + 5 μg/ml of Benzyl Ester of clavulanic acid (Klebsiella Aerogenes 62): 3.9 µg/mL
MIC of Ampicillin + 5 μg/ml of Methyl Ester of clavulanic acid (Klebsiella Aerogenes 62): 3.9 µg/mL
MIC (Enterobacter cloacae): 250 µg/mL
Structure (SMILES): CC1(C)S[C@@H]2[C@H](NC(=O)[C@H](N)c3ccccc3)C(=O)N2[C@H]1C(=O)O [ampicillin]
M.I.C. of antibiotic in the presence of 1.0 μg/ml. clavulanic acid methyl ester [3]: < 0.4 µg/mL
M.I.C. of ampicillin in the presence of 5 μg/ml. clavulanic acid methyl ester (Proteus mirabilis C889): 31 µg/mL

Structure (SMILES): O=C(O)[C@H]1/C(=C/CO)O[C@@H]2CC(=O)N21 [clavulanic acid sodium salt, 3-(β-hydroxyethylidine)-7-oxo-4-oxa-1-azabicyclo [3,2,0]heptane-2-carboxylic acid sodium salt]
Minimum Inhibitory Concentration, compound alone ([1]; Table 6): 15 µg/mL
Minimum Inhibitory Concentration, compound alone (Staphylococcus aureus): 62 µg/mL

Structure (SMILES): O=C(COc1ccccc1)OC/C=C1\O[C@@H]2CC(=O)N2[C@H]1C(=O)OCc1ccccc1 [benzyl phenoxyacetylclavulanate, Benzyl Phenoxyacetylclavulanate]
IC50 [5]: 3.54 µM
